In ChEMBL document CHEMBL1135103, “Design and synthesis of a piperazinylalkylisoxazole library for subtype selective dopamine receptor ligands” (Bioorg Med Chem Lett, 2002):

Columns and labels:
Assay in all cases: biochemical
D(4) dopamine receptor = target: T1, D(4) dopamine receptor (Homo sapiens, UniProt P21917)
T1 sequence (P21917 whole entry): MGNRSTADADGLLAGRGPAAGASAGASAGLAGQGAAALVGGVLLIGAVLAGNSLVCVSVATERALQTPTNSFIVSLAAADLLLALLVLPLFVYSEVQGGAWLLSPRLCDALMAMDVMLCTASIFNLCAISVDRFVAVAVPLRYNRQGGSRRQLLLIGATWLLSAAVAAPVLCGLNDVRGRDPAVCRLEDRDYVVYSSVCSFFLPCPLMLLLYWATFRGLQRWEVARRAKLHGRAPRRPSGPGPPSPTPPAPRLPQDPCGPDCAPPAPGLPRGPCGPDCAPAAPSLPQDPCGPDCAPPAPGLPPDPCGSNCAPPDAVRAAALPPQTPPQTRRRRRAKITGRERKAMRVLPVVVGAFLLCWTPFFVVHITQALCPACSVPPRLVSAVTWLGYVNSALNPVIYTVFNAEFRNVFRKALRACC
Description: Displacement of the radioligand [3H]spiperone from the cloned human dopamine receptor D4 expressed in CHO cells

D(2) dopamine receptor = D(2) dopamine receptor (Homo sapiens, UniProt P14416)
D(2) dopamine receptor, sequence (P14416 whole entry): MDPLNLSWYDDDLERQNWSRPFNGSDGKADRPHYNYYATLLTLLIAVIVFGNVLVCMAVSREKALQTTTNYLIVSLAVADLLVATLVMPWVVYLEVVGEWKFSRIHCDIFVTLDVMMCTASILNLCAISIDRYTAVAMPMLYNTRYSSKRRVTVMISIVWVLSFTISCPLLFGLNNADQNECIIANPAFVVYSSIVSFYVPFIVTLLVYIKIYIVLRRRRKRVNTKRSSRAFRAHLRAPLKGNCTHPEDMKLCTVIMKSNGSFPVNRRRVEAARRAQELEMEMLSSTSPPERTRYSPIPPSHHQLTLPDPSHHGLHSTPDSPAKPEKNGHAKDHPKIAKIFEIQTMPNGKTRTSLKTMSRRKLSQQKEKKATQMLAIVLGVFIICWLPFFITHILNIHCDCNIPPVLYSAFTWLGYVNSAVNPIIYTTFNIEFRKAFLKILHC
Description: Displacement of the radioligand [3H]spiperone from the cloned human Dopamine receptor D2 long expressed in CHO cells

D(3) dopamine receptor = D(3) dopamine receptor (Homo sapiens, UniProt P35462)
D(3) dopamine receptor, sequence (P35462 whole entry): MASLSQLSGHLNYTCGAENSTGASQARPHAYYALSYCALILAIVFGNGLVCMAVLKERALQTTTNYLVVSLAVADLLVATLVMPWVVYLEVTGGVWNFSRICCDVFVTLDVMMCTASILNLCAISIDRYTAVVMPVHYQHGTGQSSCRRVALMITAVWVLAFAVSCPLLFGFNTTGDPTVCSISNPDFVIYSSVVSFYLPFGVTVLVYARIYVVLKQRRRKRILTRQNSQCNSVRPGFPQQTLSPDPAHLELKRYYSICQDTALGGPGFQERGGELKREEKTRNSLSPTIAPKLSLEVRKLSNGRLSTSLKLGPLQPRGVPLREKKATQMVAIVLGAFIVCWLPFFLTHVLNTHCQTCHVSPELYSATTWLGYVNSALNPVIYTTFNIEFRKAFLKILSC
Description: Displacement of the radioligand [3H]YM-09151-2 from cloned human Dopamine receptor D3 expressed in CHO cells

Row | Structure (SMILES) | Ki (D(4) dopamine receptor) [nM] | Ki (D(2) dopamine receptor) [nM] | Ki (D(3) dopamine receptor) [nM]
1 | COc1ccc(-c2cc(CCCCN3CCN(C(c4ccccc4)c4ccccc4)CC3)on2)c(OC)c1 | 1120 | 3830 | 16
2 | COc1ccc(-c2cc(CCCCN3CCN(c4ccccc4F)CC3)on2)cc1OC | 233 | 5150 | 20
3 | COc1ccccc1N1CCN(CCCCc2cc(-c3ccc(F)cc3)no2)CC1 | 33 | 321 | 23
4 | COc1ccccc1N1CCN(CCCCc2cc(-c3cccc([N+](=O)[O-])c3)no2)CC1 | 50 | 295 | 6
5 | c1ccc(N2CCN(CCCCc3cc(-c4cccs4)no3)CC2)cc1 | 117 | 4140 | 15
6 | COc1ccc(-c2cc(CCCCN3CCN(C(c4ccccc4)c4ccccc4)CC3)on2)cc1OC | 2440 | 2620 | 20
7 | O=[N+]([O-])c1cccc(-c2cc(CCCCN3CCN(C(c4ccccc4)c4ccccc4)CC3)on2)c1 | 2310 | 1520 | 19
8 | COc1ccc(-c2cc(CCCCN3CCN(c4ccccc4)CC3)on2)c(OC)c1 | 76 | 2200 | 16
9 | COc1ccc(-c2cc(CCCCN3CCN(c4ccccc4OC)CC3)on2)c(OC)c1 | 34 | 440 | 6.5
10 | COc1ccc(-c2cc(CCCCN3CCN(c4ccccc4)CC3)on2)cc1OC | 774 | 3390 | 24
11 | Cc1ccccc1N1CCN(CCCCc2cc(-c3cccs3)no2)CC1 | 465 | 2110 | 163
12 | CCOc1ccccc1N1CCN(CCCCc2cc(-c3ccc(OC)c(OC)c3)no2)CC1 | 28 | 119 | 2.6
13 | Cc1ccccc1N1CCN(CCCCc2cc(-c3ccccc3)no2)CC1 | 683 | 6510 | 292
14 | Fc1ccc(-c2cc(CCCCN3CCN(c4ccccc4)CC3)on2)cc1 | 96 | 2530 | 12
15 | Fc1ccc(-c2cc(CCCCN3CCN(C(c4ccccc4)c4ccccc4)CC3)on2)cc1 | 1350 | 1460 | 30
16 | C(=C\c1cc(CCCCN2CCN(C(c3ccccc3)c3ccccc3)CC2)on1)/c1ccccc1 | 603 | 491 | 40
17 | Fc1ccccc1N1CCN(CCCCc2cc(/C=C/c3ccccc3)no2)CC1 | 58 | 585 | 10
18 | COc1ccccc1N1CCN(CCCCc2cc(-c3ccccc3)no2)CC1 | 198 | 1730 | 9.5
19 | COc1ccccc1N1CCN(CCCCc2cc(/C=C/c3ccccc3)no2)CC1 | 88 | 964 | 15
20 | COc1ccc(-c2cc(CCCCN3CCN(c4ccccc4OC)CC3)on2)cc1OC | 257 | 418 | 5.2
21 | O=[N+]([O-])c1cccc(-c2cc(CCCCN3CCN(c4ccccc4)CC3)on2)c1 | 1700 | 1470 | 60
22 | COc1ccc(-c2cc(CCCCN3CCN(c4ccccc4C)CC3)on2)cc1OC | 413 | 1400 | 38
23 | CCOc1ccccc1N1CCN(CCCCc2cc(-c3ccccc3)no2)CC1 | 34 | 341 | 9
24 | CCOc1ccccc1N1CCN(CCCCc2cc(-c3cccc([N+](=O)[O-])c3)no2)CC1 | 51 | 95 | 19
25 | c1ccc(C(c2ccccc2)N2CCN(CCCCc3cc(-c4cccs4)no3)CC2)cc1 | 2150 | 620 | 52
26 | COc1ccccc1N1CCN(CCCCc2cc(-c3cccs3)no2)CC1 | 21 | 726 | 4.7
27 | CCOc1ccccc1N1CCN(CCCCc2cc(-c3cccs3)no2)CC1 | 12 | 194 | 3.9
28 | c1ccc(-c2cc(CCCCN3CCN(C(c4ccccc4)c4ccccc4)CC3)on2)cc1 | 2240 | 486 | 15
29 | C(=C\c1cc(CCCCN2CCN(c3ccccc3)CC2)on1)/c1ccccc1 | 346 | 9720 | 27
30 | c1ccc(-c2cc(CCCCN3CCN(c4ccccc4)CC3)on2)cc1 | 541 | 3370 | 18
